Test results: US12305162B2, “Method for expanding propagation of Metarhizium rileyi MR006 and use thereof” (priority 2023, dated 2025)

Legend:
Test in all cases: Sub-lethal dose (LC25) of chlorantraniliprole on 2nd instar larvae
Assay type in all cases: in vivo
Spodoptera frugiperda = test system: Spodoptera frugiperda
Spodoptera litura = test system: Spodoptera litura
Helicoverpa armigera = test system: Helicoverpa armigera

## CNC(=O)c1cc(Cl)cc(C)c1NC(=O)c1cc(Br)nn1-c1ncccc1Cl [chlorantraniliprole]
Spodoptera frugiperda
  LC25 value: 0.006 µg/g
Spodoptera litura
  LC25 value: 0.008 µg/g
Helicoverpa armigera
  LC25 value: 0.015 µg/g
